# System: Genes belonging to other category
# Assay: DNA chip mRNA expression in yeast, genes belonging to other category (Table 9)
# Assay type: cell-based, Saccharomyces cerevisiae S288C
# Method in brief: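 Chemical exposure: 2 h, log-phase S. cerevisiae S288C, YPD, 25° C., dose set to inhibit growth without death. Profiling: mRNA labeled by reverse transcription with Cy3- or Cy5-dUTP, hybridized to whole-genome array. Output: fluorescence ratio against untreated culture.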
smiles,measurement,setting,value
"CN(C)C(=S)SSC(=S)N(C)C [(10), Tetramethylthiuram disulfide]",The level of expressed mRNA in the presence of chemical substance/The level of expressed mRNA in the absence of chemical substance,yeast gene YAR009C,1.4
same,The level of expressed mRNA in the presence of chemical substance/The level of expressed mRNA in the absence of chemical substance,yeast gene YAR010C,1.1
same,The level of expressed mRNA in the presence of chemical substance/The level of expressed mRNA in the absence of chemical substance,yeast gene YBL005W-A,1.5
same,The level of expressed mRNA in the presence of chemical substance/The level of expressed mRNA in the absence of chemical substance,yeast gene YBL041W,2.6
same,The level of expressed mRNA in the presence of chemical substance/The level of expressed mRNA in the absence of chemical substance,yeast gene YBL043W,14.7
same,The level of expressed mRNA in the presence of chemical substance/The level of expressed mRNA in the absence of chemical substance,yeast gene YBL078C,15.2
same,The level of expressed mRNA in the presence of chemical substance/The level of expressed mRNA in the absence of chemical substance,yeast gene YBL101C,1.4
same,The level of expressed mRNA in the presence of chemical substance/The level of expressed mRNA in the absence of chemical substance,yeast gene YBR010W,0.7
same,The level of expressed mRNA in the presence of chemical substance/The level of expressed mRNA in the absence of chemical substance,yeast gene YBR031W,1.0
same,The level of expressed mRNA in the presence of chemical substance/The level of expressed mRNA in the absence of chemical substance,yeast gene YBR170C,4.2
same,The level of expressed mRNA in the presence of chemical substance/The level of expressed mRNA in the absence of chemical substance,yeast gene YBR201W,1.0
same,The level of expressed mRNA in the presence of chemical substance/The level of expressed mRNA in the absence of chemical substance,yeast gene YBR214W,3.5
same,The level of expressed mRNA in the presence of chemical substance/The level of expressed mRNA in the absence of chemical substance,yeast gene YBR239C,1.2
same,The level of expressed mRNA in the presence of chemical substance/The level of expressed mRNA in the absence of chemical substance,yeast gene YBR286W,1.6
same,The level of expressed mRNA in the presence of chemical substance/The level of expressed mRNA in the absence of chemical substance,yeast gene YBR290W,1.8
same,The level of expressed mRNA in the presence of chemical substance/The level of expressed mRNA in the absence of chemical substance,yeast gene YCL020W,2.4
same,The level of expressed mRNA in the presence of chemical substance/The level of expressed mRNA in the absence of chemical substance,yeast gene YCL027W,16.3
same,The level of expressed mRNA in the presence of chemical substance/The level of expressed mRNA in the absence of chemical substance,yeast gene YCL033C,1.4
same,The level of expressed mRNA in the presence of chemical substance/The level of expressed mRNA in the absence of chemical substance,yeast gene YCR004C,2.1
same,The level of expressed mRNA in the presence of chemical substance/The level of expressed mRNA in the absence of chemical substance,yeast gene YCR062W,1.3
same,The level of expressed mRNA in the presence of chemical substance/The level of expressed mRNA in the absence of chemical substance,yeast gene YCR071C,1.2
same,The level of expressed mRNA in the presence of chemical substance/The level of expressed mRNA in the absence of chemical substance,yeast gene YCR088W,0.9
same,The level of expressed mRNA in the presence of chemical substance/The level of expressed mRNA in the absence of chemical substance,yeast gene YCR091W,1.2
same,The level of expressed mRNA in the presence of chemical substance/The level of expressed mRNA in the absence of chemical substance,yeast gene YDL008W,3.0
same,The level of expressed mRNA in the presence of chemical substance/The level of expressed mRNA in the absence of chemical substance,yeast gene YDL097C,2.3
same,The level of expressed mRNA in the presence of chemical substance/The level of expressed mRNA in the absence of chemical substance,yeast gene YDL238C,2.7
same,The level of expressed mRNA in the presence of chemical substance/The level of expressed mRNA in the absence of chemical substance,yeast gene YDR055W,2.4
same,The level of expressed mRNA in the presence of chemical substance/The level of expressed mRNA in the absence of chemical substance,yeast gene YDR080W,2.6
same,The level of expressed mRNA in the presence of chemical substance/The level of expressed mRNA in the absence of chemical substance,yeast gene YDR084C,0.6
same,The level of expressed mRNA in the presence of chemical substance/The level of expressed mRNA in the absence of chemical substance,yeast gene YDR085C,2.3
same,The level of expressed mRNA in the presence of chemical substance/The level of expressed mRNA in the absence of chemical substance,yeast gene YDR104C,2.7
same,The level of expressed mRNA in the presence of chemical substance/The level of expressed mRNA in the absence of chemical substance,yeast gene YDR115W,1.0
same,The level of expressed mRNA in the presence of chemical substance/The level of expressed mRNA in the absence of chemical substance,yeast gene YDR169C,1.4
same,The level of expressed mRNA in the presence of chemical substance/The level of expressed mRNA in the absence of chemical substance,yeast gene YDR188W,1.6
same,The level of expressed mRNA in the presence of chemical substance/The level of expressed mRNA in the absence of chemical substance,yeast gene YDR259C,1.8
same,The level of expressed mRNA in the presence of chemical substance/The level of expressed mRNA in the absence of chemical substance,yeast gene YDR264C,3.4
same,The level of expressed mRNA in the presence of chemical substance/The level of expressed mRNA in the absence of chemical substance,yeast gene YDR276C,2.7
same,The level of expressed mRNA in the presence of chemical substance/The level of expressed mRNA in the absence of chemical substance,yeast gene YDR315C,1.6
same,The level of expressed mRNA in the presence of chemical substance/The level of expressed mRNA in the absence of chemical substance,yeast gene YDR329C,1.0
same,The level of expressed mRNA in the presence of chemical substance/The level of expressed mRNA in the absence of chemical substance,yeast gene YDR358W,3.2
same,The level of expressed mRNA in the presence of chemical substance/The level of expressed mRNA in the absence of chemical substance,yeast gene YDR378C,1.3
same,The level of expressed mRNA in the presence of chemical substance/The level of expressed mRNA in the absence of chemical substance,yeast gene YDR388W,0.9
same,The level of expressed mRNA in the presence of chemical substance/The level of expressed mRNA in the absence of chemical substance,yeast gene YDR427W,2.0
same,The level of expressed mRNA in the presence of chemical substance/The level of expressed mRNA in the absence of chemical substance,yeast gene YDR432W,0.8
same,The level of expressed mRNA in the presence of chemical substance/The level of expressed mRNA in the absence of chemical substance,yeast gene YDR481C,1.6
same,The level of expressed mRNA in the presence of chemical substance/The level of expressed mRNA in the absence of chemical substance,yeast gene YDR505C,1.0
same,The level of expressed mRNA in the presence of chemical substance/The level of expressed mRNA in the absence of chemical substance,yeast gene YDR510W,2.5
same,The level of expressed mRNA in the presence of chemical substance/The level of expressed mRNA in the absence of chemical substance,yeast gene YDR515W,2.7
same,The level of expressed mRNA in the presence of chemical substance/The level of expressed mRNA in the absence of chemical substance,yeast gene YEL012W,4.2
same,The level of expressed mRNA in the presence of chemical substance/The level of expressed mRNA in the absence of chemical substance,yeast gene YEL042W,0.3
same,The level of expressed mRNA in the presence of chemical substance/The level of expressed mRNA in the absence of chemical substance,yeast gene YEL066W,2.4
same,The level of expressed mRNA in the presence of chemical substance/The level of expressed mRNA in the absence of chemical substance,yeast gene YER009W,1.0
same,The level of expressed mRNA in the presence of chemical substance/The level of expressed mRNA in the absence of chemical substance,yeast gene YER012W,2.7
same,The level of expressed mRNA in the presence of chemical substance/The level of expressed mRNA in the absence of chemical substance,yeast gene YER039C,0.8
same,The level of expressed mRNA in the presence of chemical substance/The level of expressed mRNA in the absence of chemical substance,yeast gene YER076C,1.2
same,The level of expressed mRNA in the presence of chemical substance/The level of expressed mRNA in the absence of chemical substance,yeast gene YER107C,0.5
same,The level of expressed mRNA in the presence of chemical substance/The level of expressed mRNA in the absence of chemical substance,yeast gene YER130C,1.3
same,The level of expressed mRNA in the presence of chemical substance/The level of expressed mRNA in the absence of chemical substance,yeast gene YFL022C,0.5
same,The level of expressed mRNA in the presence of chemical substance/The level of expressed mRNA in the absence of chemical substance,yeast gene YFL028C,1.8
same,The level of expressed mRNA in the presence of chemical substance/The level of expressed mRNA in the absence of chemical substance,yeast gene YFL043C,3.8
same,The level of expressed mRNA in the presence of chemical substance/The level of expressed mRNA in the absence of chemical substance,yeast gene YFR004W,2.6
same,The level of expressed mRNA in the presence of chemical substance/The level of expressed mRNA in the absence of chemical substance,yeast gene YFR014C,1.6
same,The level of expressed mRNA in the presence of chemical substance/The level of expressed mRNA in the absence of chemical substance,yeast gene YFR050C,2.1
same,The level of expressed mRNA in the presence of chemical substance/The level of expressed mRNA in the absence of chemical substance,yeast gene YGL158W,0.9
same,The level of expressed mRNA in the presence of chemical substance/The level of expressed mRNA in the absence of chemical substance,yeast gene YGL180W,3.7
same,The level of expressed mRNA in the presence of chemical substance/The level of expressed mRNA in the absence of chemical substance,yeast gene YGL185C,2.3
same,The level of expressed mRNA in the presence of chemical substance/The level of expressed mRNA in the absence of chemical substance,yeast gene YGL229C,1.7
same,The level of expressed mRNA in the presence of chemical substance/The level of expressed mRNA in the absence of chemical substance,yeast gene YGR120C,1.2
same,The level of expressed mRNA in the presence of chemical substance/The level of expressed mRNA in the absence of chemical substance,yeast gene YGR136W,2.2
same,The level of expressed mRNA in the presence of chemical substance/The level of expressed mRNA in the absence of chemical substance,yeast gene YGR189C,0.9
same,The level of expressed mRNA in the presence of chemical substance/The level of expressed mRNA in the absence of chemical substance,yeast gene YGR213C,6.9
same,The level of expressed mRNA in the presence of chemical substance/The level of expressed mRNA in the absence of chemical substance,yeast gene YGR248W,3.2
same,The level of expressed mRNA in the presence of chemical substance/The level of expressed mRNA in the absence of chemical substance,yeast gene YGR257C,1.9
same,The level of expressed mRNA in the presence of chemical substance/The level of expressed mRNA in the absence of chemical substance,yeast gene YHR004C,0.6
same,The level of expressed mRNA in the presence of chemical substance/The level of expressed mRNA in the absence of chemical substance,yeast gene YHR071W,7.2
same,The level of expressed mRNA in the presence of chemical substance/The level of expressed mRNA in the absence of chemical substance,yeast gene YHR109W,1.8
same,The level of expressed mRNA in the presence of chemical substance/The level of expressed mRNA in the absence of chemical substance,yeast gene YHR136C,2.0
same,The level of expressed mRNA in the presence of chemical substance/The level of expressed mRNA in the absence of chemical substance,yeast gene YHR139C,46.6
same,The level of expressed mRNA in the presence of chemical substance/The level of expressed mRNA in the absence of chemical substance,yeast gene YHR142W,0.9
same,The level of expressed mRNA in the presence of chemical substance/The level of expressed mRNA in the absence of chemical substance,yeast gene YHR161C,2.0
same,The level of expressed mRNA in the presence of chemical substance/The level of expressed mRNA in the absence of chemical substance,yeast gene YIL034C,1.3
same,The level of expressed mRNA in the presence of chemical substance/The level of expressed mRNA in the absence of chemical substance,yeast gene YIL123W,0.2
same,The level of expressed mRNA in the presence of chemical substance/The level of expressed mRNA in the absence of chemical substance,yeast gene YIL140W,0.6
same,The level of expressed mRNA in the presence of chemical substance/The level of expressed mRNA in the absence of chemical substance,yeast gene YJL035C,1.4
same,The level of expressed mRNA in the presence of chemical substance/The level of expressed mRNA in the absence of chemical substance,yeast gene YJL059W,1.6
same,The level of expressed mRNA in the presence of chemical substance/The level of expressed mRNA in the absence of chemical substance,yeast gene YJL073W,0.7
same,The level of expressed mRNA in the presence of chemical substance/The level of expressed mRNA in the absence of chemical substance,yeast gene YJL089W,3.9
same,The level of expressed mRNA in the presence of chemical substance/The level of expressed mRNA in the absence of chemical substance,yeast gene YJL116C,2.6
same,The level of expressed mRNA in the presence of chemical substance/The level of expressed mRNA in the absence of chemical substance,yeast gene YJL141C,1.3
same,The level of expressed mRNA in the presence of chemical substance/The level of expressed mRNA in the absence of chemical substance,yeast gene YJR004C,0.7
same,The level of expressed mRNA in the presence of chemical substance/The level of expressed mRNA in the absence of chemical substance,yeast gene YJR049C,1.4
